Reference: ChEMBL document CHEMBL3885861, “Open TG-GATES”

Species on record: Rattus norvegicus
Test: Open TG-GATES - Regimen: Single
Format: toxicity, organism-based, Sprague-Dawley
Design: regimen Single, gender Male, age 6 weeks
Details: in vivo, iv, 0 mg/kg, route intravenous injection, dose level Control; for Bas / Eos / Hb / Ht / Lym / MCH / MCHC / MCV / Mono / Neu / Plat / RBC / Ret: tissue Blood; for KIDNEY_L / KIDNEY_R / KIDNEY_TOTAL: tissue Kidney; for ALT / AST / CRE / DBIL / GLC / K / LDH / Na / PL / RALB / TBIL / TC / TP / gamma-GTP: tissue Plasma

SMILES: CC(C)C[C@H](NC(=O)[C@H](Cc1ccccc1)NC(=O)c1cnccn1)B(O)O [BORTEZOMIB]
- TERMINAL_BW (3 h): 223 g
- Bas (3 h): 0%
- Eos (3 h): 0.8%
- Hb (3 h): 13.9 g/dL
- Ht (3 h): 39.5%
- Lym (3 h): 81.4%
- MCH (3 h): 22.9 pg
- MCHC (3 h): 35.2%
- MCV (3 h): 65.1 fL
- Mono (3 h): 2.6%
- Neu (3 h): 14.8%
- Plat (3 h): 124.1 x10_4/uL
- RBC (3 h): 607 x10_4/ul
- Ret (3 h): 9.3%
- KIDNEY_L (3 h): 0.9 g
- KIDNEY_R (3 h): 0.9 g
- KIDNEY_TOTAL (3 h): 1.9 g
- ALT (3 h): 38.6 IU/L
- AST (3 h): 70.4 IU/L
- CRE (3 h): 0.2 mg/dL
- DBIL (3 h): 0 mg/dL
- GLC (3 h): 191.2 mg/dL
- K (3 h): 3.9 meq/L
- LDH (3 h): 175.8 IU/L
- Na (3 h): 142.3 meq/L
- PL (3 h): 138.6 mg/dL
- RALB (3 h): 4.1 g/dL
- TBIL (3 h): 0.006 mg/dL
- TC (3 h): 74.6 mg/dL
- TP (3 h): 5.6 g/dL
- gamma-GTP (3 h): 0.7 IU/L
- TERMINAL_BW (6 h): 220.7 g
- Bas (6 h): 0%
- Eos (6 h): 0.4%
- Hb (6 h): 13.7 g/dL
- Ht (6 h): 38.8%
- Lym (6 h): 77.6%
- MCH (6 h): 22.1 pg
- MCHC (6 h): 35.4%
- MCV (6 h): 62.5 fL
- Mono (6 h): 2.8%
- Neu (6 h): 18.4%
- Plat (6 h): 117.1 x10_4/uL
- RBC (6 h): 622.4 x10_4/ul
- Ret (6 h): 8.7%
- KIDNEY_L (6 h): 1 g
- KIDNEY_R (6 h): 1 g
- KIDNEY_TOTAL (6 h): 2 g
- ALT (6 h): 37 IU/L
- AST (6 h): 78.8 IU/L
- CRE (6 h): 0.2 mg/dL
- DBIL (6 h): 0 mg/dL
- GLC (6 h): 176.6 mg/dL
- K (6 h): 4.4 meq/L
- LDH (6 h): 219.2 IU/L
- Na (6 h): 141.6 meq/L
- PL (6 h): 141.4 mg/dL
- RALB (6 h): 4 g/dL
- TBIL (6 h): 0.014 mg/dL
- TC (6 h): 75.4 mg/dL
- TP (6 h): 5.6 g/dL
- gamma-GTP (6 h): 0.8 IU/L
- TERMINAL_BW (9 h): 222.6 g
- Bas (9 h): 0%
- Eos (9 h): 1%
- Hb (9 h): 14 g/dL
- Ht (9 h): 40.5%
- Lym (9 h): 71%
- MCH (9 h): 22.2 pg
- MCHC (9 h): 34.5%
- MCV (9 h): 64.3 fL
- Mono (9 h): 3.4%
- Neu (9 h): 24.4%
- Plat (9 h): 108.5 x10_4/uL
- RBC (9 h): 630.2 x10_4/ul
- Ret (9 h): 9.3%
- KIDNEY_L (9 h): 1 g
- KIDNEY_R (9 h): 1 g
- KIDNEY_TOTAL (9 h): 1.9 g
- ALT (9 h): 39.8 IU/L
- AST (9 h): 78 IU/L
- CRE (9 h): 0.2 mg/dL
- DBIL (9 h): 0 mg/dL
- GLC (9 h): 179.4 mg/dL
- K (9 h): 3.9 meq/L
- LDH (9 h): 187.2 IU/L
- Na (9 h): 141.5 meq/L
- PL (9 h): 139 mg/dL
- RALB (9 h): 3.9 g/dL
- TBIL (9 h): 0.022 mg/dL
- TC (9 h): 78.6 mg/dL
- TP (9 h): 5.5 g/dL
- gamma-GTP (9 h): 0.8 IU/L
- TERMINAL_BW (24 h): 236.7 g
- Bas (24 h): 0%
- Eos (24 h): 0.6%
- Hb (24 h): 13.8 g/dL
- Ht (24 h): 38.2%
- Lym (24 h): 81.2%
- MCH (24 h): 22.9 pg
- MCHC (24 h): 36.1%
- MCV (24 h): 63.5 fL
- Mono (24 h): 3%
- Neu (24 h): 14.6%
- Plat (24 h): 113.7 x10_4/uL
- RBC (24 h): 603 x10_4/ul
- Ret (24 h): 8%
- KIDNEY_L (24 h): 1.1 g
- KIDNEY_R (24 h): 1 g
- KIDNEY_TOTAL (24 h): 2.1 g
- ALT (24 h): 42 IU/L
- AST (24 h): 74.4 IU/L
- CRE (24 h): 0.2 mg/dL
- DBIL (24 h): 0 mg/dL
- GLC (24 h): 182.4 mg/dL
- K (24 h): 4.2 meq/L
- LDH (24 h): 190.4 IU/L
- Na (24 h): 140.8 meq/L
- PL (24 h): 146.4 mg/dL
- RALB (24 h): 4 g/dL
- TBIL (24 h): 0.002 mg/dL
- TC (24 h): 74.2 mg/dL
- TP (24 h): 5.7 g/dL
